This data set can be described thus: Solubility of compound in PBS at pH 7.4 at 100 uM incubated for 120 mins by LC-MS/MS analysis. The format is physicochemical. The settings on record: buffer, pH 7.4, 2 h.
`O=C(O[C@H]1CCNC1)[C@@H]1[C@H]2C[C@H]3c4[nH]c5ccccc5c4CCN3C[C@@H]2CC[C@@H]1O`: the solubility result is “Soluble”.

Turning to `O=C(OC[C@H]1CCCN1)[C@@H]1[C@H]2C[C@H]3c4[nH]c5ccccc5c4CCN3C[C@@H]2CC[C@@H]1O`, the solubility entry is recorded as “Soluble”.

Take `O=C(O[C@H]1CCOC1)[C@@H]1[C@H]2C[C@H]3c4[nH]c5ccccc5c4CCN3C[C@@H]2CC[C@@H]1O`: the solubility entry is recorded as “Soluble”.

Turning to `O=C(N[C@H]1CCNC1)[C@@H]1[C@H]2C[C@H]3c4[nH]c5ccccc5c4CCN3C[C@@H]2CC[C@@H]1O`, the solubility result is on record as “Soluble”.

Consider `O=C(OC[C@@H]1CCNC1)[C@@H]1[C@H]2C[C@H]3c4[nH]c5ccccc5c4CCN3C[C@@H]2CC[C@@H]1O`, for which the solubility result is recorded as “Soluble”.

Take `N[C@H]1C[C@@H](OC(=O)[C@@H]2[C@H]3C[C@H]4c5[nH]c6ccccc6c5CCN4C[C@@H]3CC[C@@H]2O)C1`: the solubility entry is “Soluble”.

For the compound `O=C(O[C@@H]1CCNC1)[C@@H]1[C@H]2C[C@H]3c4[nH]c5ccccc5c4CCN3C[C@@H]2CC[C@@H]1O`, the solubility result is listed as “Soluble”.

On to `O=C(OC1CCNCC1)[C@@H]1[C@H]2C[C@H]3c4[nH]c5ccccc5c4CCN3C[C@@H]2CC[C@@H]1O`, for which the solubility result is given as “Soluble”.

As to `CCOC(=O)[C@@H]1[C@H]2C[C@H]3c4[nH]c5ccccc5c4CCN3C[C@@H]2CC[C@@H]1O`, the solubility entry was “Soluble”.

Take `CNCCOC(=O)[C@@H]1[C@H]2C[C@H]3c4[nH]c5ccccc5c4CCN3C[C@@H]2CC[C@@H]1O`: the solubility entry is “Soluble”.

With `CC(C)OC(=O)[C@@H]1[C@H]2C[C@H]3c4[nH]c5ccccc5c4CCN3C[C@@H]2CC[C@@H]1O`, the solubility result was “Soluble”.

`O=C(OC[C@H]1CCN1)[C@@H]1[C@H]2C[C@H]3c4[nH]c5ccccc5c4CCN3C[C@@H]2CC[C@@H]1O`: the solubility result is listed as “Soluble”.

With `O=C(OC1COC1)[C@@H]1[C@H]2C[C@H]3c4[nH]c5ccccc5c4CCN3C[C@@H]2CC[C@@H]1O`, the solubility entry was “Soluble”.

Consider `N[C@H]1C[C@H](OC(=O)[C@@H]2[C@H]3C[C@H]4c5[nH]c6ccccc6c5CCN4C[C@@H]3CC[C@@H]2O)C1`, for which the solubility result is reported as “Soluble”.

Consider `O=C(OC1CNC1)[C@@H]1[C@H]2C[C@H]3c4[nH]c5ccccc5c4CCN3C[C@@H]2CC[C@@H]1O`, for which the solubility entry is recorded as “Soluble”.

Turning to `O=C(OC[C@H]1CCNC1)[C@@H]1[C@H]2C[C@H]3c4[nH]c5ccccc5c4CCN3C[C@@H]2CC[C@@H]1O`, the solubility entry was “Soluble”.

Regarding `CN1CC[C@H](OC(=O)[C@@H]2[C@H]3C[C@H]4c5[nH]c6ccccc6c5CCN4C[C@@H]3CC[C@@H]2O)C1`, the solubility entry is “Soluble”.

Source of the values: ChEMBL document CHEMBL5500395 (J Med Chem, 2024).
